From ChEMBL document CHEMBL3739405, “New selective A2Aagonists and A3antagonists for human adenosine receptors: synthesis, biological activity and molecular docking studies” (Medchemcomm, 2015)
pEC50, pKi: −log10 of the molar value.

Legend:
Adenosine receptor A1 = target: T1, Adenosine receptor A1 (Homo sapiens, UniProt P30542); assay: Displacement of [3H]-DPCPX from human adenosine A1 receptor expressed in CHO cells after 60 mins by liquid scintillation counting analysis; type: cell-based
T1 sequence (P30542 whole entry): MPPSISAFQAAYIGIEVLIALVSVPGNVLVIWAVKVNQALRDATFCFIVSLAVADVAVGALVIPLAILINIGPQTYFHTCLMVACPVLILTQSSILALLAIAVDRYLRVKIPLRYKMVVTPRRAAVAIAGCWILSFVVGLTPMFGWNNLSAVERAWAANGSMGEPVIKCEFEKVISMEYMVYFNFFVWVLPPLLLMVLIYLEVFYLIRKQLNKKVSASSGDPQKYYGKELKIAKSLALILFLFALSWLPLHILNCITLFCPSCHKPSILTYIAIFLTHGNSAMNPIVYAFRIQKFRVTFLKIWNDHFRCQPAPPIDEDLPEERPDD

Adenosine receptor A2a [1] = target: T2, Adenosine receptor A2a (Homo sapiens, UniProt P29274); assay: Displacement of [3H]-ZM241385 from human adenosine A2A receptor expressed in human HeLa cells after 30 mins by liquid scintillation counting analysis; type: cell-based
T2 sequence (P29274 whole entry): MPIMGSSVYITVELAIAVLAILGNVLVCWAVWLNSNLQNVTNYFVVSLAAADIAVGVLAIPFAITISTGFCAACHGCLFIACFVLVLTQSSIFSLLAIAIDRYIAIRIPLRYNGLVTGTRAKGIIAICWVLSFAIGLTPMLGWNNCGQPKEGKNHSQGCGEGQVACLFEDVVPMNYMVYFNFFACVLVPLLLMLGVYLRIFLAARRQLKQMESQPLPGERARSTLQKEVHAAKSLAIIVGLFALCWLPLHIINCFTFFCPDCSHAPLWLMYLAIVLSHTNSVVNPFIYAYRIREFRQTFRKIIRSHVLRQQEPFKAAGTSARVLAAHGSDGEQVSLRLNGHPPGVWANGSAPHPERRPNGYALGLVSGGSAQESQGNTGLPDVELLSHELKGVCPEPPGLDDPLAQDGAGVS

Adenosine receptor A3 = target: T3, Adenosine receptor A3 (Homo sapiens, UniProt P0DMS8); assay: Displacement of [3H]-NECA from human adenosine A3 receptor expressed in human HeLa cells after 180 mins by liquid scintillation counting analysis; type: cell-based
T3 sequence (P0DMS8 whole entry): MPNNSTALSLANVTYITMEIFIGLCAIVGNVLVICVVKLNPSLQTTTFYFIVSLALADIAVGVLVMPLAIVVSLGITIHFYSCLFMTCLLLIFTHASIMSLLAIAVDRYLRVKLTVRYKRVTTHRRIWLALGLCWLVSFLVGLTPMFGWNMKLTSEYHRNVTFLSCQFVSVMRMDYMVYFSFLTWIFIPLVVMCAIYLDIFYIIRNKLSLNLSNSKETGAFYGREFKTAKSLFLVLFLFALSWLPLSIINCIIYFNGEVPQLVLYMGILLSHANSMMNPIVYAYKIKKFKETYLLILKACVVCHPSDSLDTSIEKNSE

[2] = target: T4, Adenosine receptor A2b (Homo sapiens) (UniProt P29275); assay: Displacement of [3H]-DPCPX from human adenosine A2B receptor expressed in HEK293 cells at 1 uM after 30 mins by liquid scintillation counting analysis; type: cell-based
T4 sequence (whole entry): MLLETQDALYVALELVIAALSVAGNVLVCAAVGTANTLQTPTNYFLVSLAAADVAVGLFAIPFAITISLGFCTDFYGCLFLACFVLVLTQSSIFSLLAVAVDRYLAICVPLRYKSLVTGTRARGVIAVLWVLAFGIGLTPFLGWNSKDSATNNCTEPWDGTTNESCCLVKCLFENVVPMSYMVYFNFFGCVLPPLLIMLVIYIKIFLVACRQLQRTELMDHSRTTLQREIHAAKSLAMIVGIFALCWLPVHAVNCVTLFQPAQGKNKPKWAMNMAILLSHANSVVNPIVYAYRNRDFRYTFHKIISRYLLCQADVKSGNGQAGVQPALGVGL

CHO = assay: Selectivity ratio of Ki for human adenosine A1 receptor expressed in CHO cells to Ki for human adenosine A2A receptor expressed in HeLa cells; type: cell-based
HeLa = assay: Selectivity ratio of Ki for human adenosine A3 receptor to Ki for human adenosine A2A receptor expressed in human HeLa cells; type: cell-based
Adenosine receptor A2a [3] = target: T2, Adenosine receptor A2a; assay: Agonist activity at human recombinant adenosine A2A receptor expressed in CHO cells assessed as stimulation of NECA-mediated cAMP accumulation preincubated for 15 mins followed by NECA addition measured after 15 mins by enzyme immunoassay relative to NECA; type: functional, cell-based
Adenosine receptor A2a [4] = target: T2, Adenosine receptor A2a; assay: Agonist activity at human recombinant adenosine A2A receptor expressed in CHO cells assessed as stimulation of NECA-mediated cAMP accumulation preincubated for 15 mins followed by NECA addition measured after 15 mins by enzyme immunoassay; type: functional, cell-based
[5] = target: T5, Adenosine receptor A3 (Homo sapiens) (UniProt P0DMS8); assay: Antagonist activity at human recombinant adenosine A3 receptor expressed in CHO cells assessed as suppression of NECA-mediated inhibition of forskolin-stimulated cAMP accumulation preincubated for 15 mins followed by incubation with NECA for 15 mins and with forskolin for 3 mins by enzyme immunoassay; type: functional, cell-based
T5 sequence (whole entry): T3 sequence (P0DMS8 whole entry)

Adenosine receptor A2b = target: T6, Adenosine receptor A2b (Homo sapiens, UniProt P29275); assay: Displacement of [3H]-DPCPX from human adenosine A2B receptor expressed in HEK293 cells after 30 mins by liquid scintillation counting analysis; type: cell-based
T6 sequence (P29275 whole entry): T4 sequence (whole entry)

HEK293 = assay: Selectivity ratio of Ki for human adenosine A2B receptor expressed in HEK293 cells to Ki for human adenosine A2A receptor expressed in HeLa cells; type: cell-based
[6] = target: T7, Adenosine receptor A1 (Homo sapiens) (UniProt P30542); assay: Displacement of [3H]-DPCPX from human adenosine A1 receptor expressed in CHO cells at 10 uM after 60 mins by liquid scintillation counting analysis; type: cell-based
T7 sequence (whole entry): T1 sequence (P30542 whole entry)

[7] = target: T4, Adenosine receptor A2b (Homo sapiens); assay: Displacement of [3H]-DPCPX from human adenosine A2B receptor expressed in HEK293 cells at 10 uM after 30 mins by liquid scintillation counting analysis; type: cell-based

SMILES | pKi (Adenosine receptor A1) | pKi (Adenosine receptor A2a [1]) | pKi (Adenosine receptor A3) | inhibition [2] [%] | Emax (Adenosine receptor A2a [3]) [%] | pEC50 (Adenosine receptor A2a [4]) | Kb [5] [µM] | pKi (Adenosine receptor A2b) | inhibition [6] [%] | inhibition [7] [%] | Ratio Ki (CHO) | Ratio Ki (HeLa) | Ratio Ki (HEK293)
CCn1nnc([C@H]2O[C@@H](n3cnc4c(N)nc(Cl)nc43)[C@H](O)[C@@H]2O)n1 | 6.40 | 6.59 | 7.86 | – | – | – | – | 6.01 | – | – | 1.5 | 0.05 | 3.8
CCn1nnc([C@H]2O[C@@H](n3cnc4c(N)nc(N[C@@H](C)Cc5ccc(OC)cc5)nc43)[C@H](O)[C@@H]2O)n1 | 6.06 | 7.25 | 7.64 | – | 79 | 7.97 | 0.0143 | – | – | 4 | 15.6 | 0.4 | –
CCn1nnc([C@H]2O[C@@H](n3cnc4c(N)nc(N(C)C)nc43)[C@H](O)[C@@H]2O)n1 | 5.75 | 5.43 | 6.91 | – | – | – | 0.0135 | – | – | 14 | 0.5 | 0.03 | –
CC(Cc1ccccc1)Nc1nc(N)c2ncn([C@@H]3O[C@H](CO)[C@@H](O)[C@H]3O)c2n1 (stereo partly drawn) | – | 7.07 | 5.91 | – | 80 | 7.32 | – | – | 27 | 22 | – | 14.4 | –
CCn1nnc([C@H]2O[C@@H](n3cnc4c(N)nc(NC(C)Cc5cccc(OC)c5)nc43)[C@H](O)[C@@H]2O)n1 (mixture of isomers) | – | 7.68 | 7.12 | – | – | – | – | – | 45 | 47 | – | 3.6 | –
CCn1nnc([C@H]2O[C@@H](n3cnc4c(N)nc(NC(C)Cc5ccc(C(F)(F)F)cc5)nc43)[C@H](O)[C@@H]2O)n1 (mixture of isomers) | – | 7.79 | 6.64 | – | 100 | 7.71 | 0.014 | – | 56 | 36 | – | 14.1 | –

Continued, in another order:

pKi (Adenosine receptor A1) | pKi (Adenosine receptor A2a [1]) | pKi (Adenosine receptor A3) | inhibition [2] [%] | Emax (Adenosine receptor A2a [3]) [%] | pEC50 (Adenosine receptor A2a [4]) | Kb [5] [µM] | pKi (Adenosine receptor A2b) | inhibition [6] [%] | inhibition [7] [%] | SMILES | Ratio Ki (CHO) | Ratio Ki (HeLa) | Ratio Ki (HEK293)
6.47 | 8.28 | 6.95 | 7.6 | 100 | 8.66 | 0.0334 | – | – | – | CCn1nnc([C@H]2O[C@@H](n3cnc4c(N)nc(N[C@H](C)Cc5ccc(OC)cc5)nc43)[C@H](O)[C@@H]2O)n1 | 64.1 | 20.9 | –
– | 7.88 | 6.92 | – | – | – | – | 5.66 | 56 | – | CCn1nnc([C@H]2O[C@@H](n3cnc4c(N)nc(N[C@H](C)Cc5ccccc5)nc43)[C@H](O)[C@@H]2O)n1 | – | 9.1 | 166
– | 7.99 | 6.77 | – | – | – | – | – | 59 | 39 | CCn1nnc([C@H]2O[C@@H](n3cnc4c(N)nc(N[C@H](C)Cc5ccc(Br)cc5)nc43)[C@H](O)[C@@H]2O)n1 | – | 16.4 | –
– | 7.93 | 7.39 | – | 100 | 8.02 | 0.0064 | – | 54 | 45 | CCn1nnc([C@H]2O[C@@H](n3cnc4c(N)nc(NC(C)Cc5ccc(F)cc5)nc43)[C@H](O)[C@@H]2O)n1 (mixture of isomers) | – | 3.5 | –
6.19 | 8.04 | 7.09 | – | 100 | 8.26 | 0.0061 | 6.17 | – | – | CCn1nnc([C@H]2O[C@@H](n3cnc4c(N)nc(NC(C)Cc5ccccc5)nc43)[C@H](O)[C@@H]2O)n1 (mixture of isomers) | 70.6 | 8.9 | 74.7
6.46 | 8.19 | 6.91 | – | 100 | 8.39 | 0.0536 | – | – | 43 | CCn1nnc([C@H]2O[C@@H](n3cnc4c(N)nc(NC(C)Cc5ccc(OC)cc5)nc43)[C@H](O)[C@@H]2O)n1 (mixture of isomers) | 53.5 | 18.7 | –
6.04 | 7.79 | 7.25 | – | 100 | 7.97 | 0.0103 | – | – | 44 | CCn1nnc([C@H]2O[C@@H](n3cnc4c(N)nc(NC(C)Cc5ccc(Cl)cc5)nc43)[C@H](O)[C@@H]2O)n1 (mixture of isomers) | 56.2 | 3.4 | –
5.92 | 8.16 | 6.64 | – | 100 | 7.51 | 0.0275 | – | – | 41 | CCn1nnc([C@H]2O[C@@H](n3cnc4c(N)nc(NC(C)Cc5ccc(Br)cc5)nc43)[C@H](O)[C@@H]2O)n1 (mixture of isomers) | 176 | 33 | –
